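Where inhibition never reached the appropriate level, the endpoint shown equals the highest concentration tested. Otherwise, values were interpolated linearly from a five-concentration, 48-hour dose response in 96-well plates. GI50 is the concentration that inhibits growth by half.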 Calls of active or inactive are those of the source. Rule as the data show it: active = GI50 up to about 1.1 µM and inactive = higher.
Tests used:
Experiment in all cases: NCI anticancer screen, dose series, 48 h
786-0 = system: 786-0
A498 = system: A498
A549 = system: A549
ACHN = system: ACHN
CAKI-1 = system: CAKI-1
CCRF-CEM = system: CCRF-CEM
COLO 205 = system: COLO 205
DLD-1 = system: DLD-1
DMS-114 = system: DMS-114
DMS-273 = system: DMS-273
EKVX = system: EKVX
HCC 2998 = system: HCC 2998
HCT-116 = system: HCT-116
HCT-15 = system: HCT-15
HL-60 = system: HL-60
HOP-18 = system: HOP-18
HOP-62 = system: HOP-62
HOP-92 = system: HOP-92
HT-29 = system: HT-29
IGROV-1 = system: IGROV-1
K562 = system: K562
KM-20L2 = system: KM-20L2
KM12 = system: KM12
LOX IMVI = system: LOX IMVI
LXFL 529 = system: LXFL 529
M14 = system: M14
M19-MEL = system: M19-MEL
MOLT-4 = system: MOLT-4
Malme-3M = system: Malme-3M
NCI-H23 = system: NCI-H23
NCI-H460 = system: NCI-H460
NCI-H522 = system: NCI-H522
OVCAR-3 = system: OVCAR-3
OVCAR-4 = system: OVCAR-4
OVCAR-5 = system: OVCAR-5
OVCAR-8 = system: OVCAR-8
RPMI-8226 = system: RPMI-8226
RXF 393 = system: RXF 393
RXF 631 = system: RXF 631
SF-268 = system: SF-268
SF-295 = system: SF-295
SF-539 = system: SF-539
SK-MEL-28 = system: SK-MEL-28
SK-MEL-2 = system: SK-MEL-2
SK-MEL-5 = system: SK-MEL-5
SK-OV-3 = system: SK-OV-3
SN12C = system: SN12C
SNB-19 = system: SNB-19
SNB-75 = system: SNB-75
SNB-78 = system: SNB-78
SW-620 = system: SW-620
TK-10 = system: TK-10
U-251 = system: U-251
UACC-257 = system: UACC-257
UACC-62 = system: UACC-62
UO-31 = system: UO-31
XF498 = system: XF498
NCI-H226 = system: NCI-H226
SR = system: SR

CC1=C(C(=O)CC(=O)C(=O)Nc2ccc(Cl)cc2C)Sc2ccccc2N1
GI50 (786-0): > 100 µM (inactive) | GI50 (A498): > 100 µM (inactive) | GI50 (A549): > 100 µM (inactive) | GI50 (ACHN): > 100 µM (inactive) | GI50 (CAKI-1): > 100 µM (inactive) | GI50 (CCRF-CEM): > 100 µM (inactive) | GI50 (COLO 205): > 100 µM (inactive) | GI50 (DLD-1): > 100 µM (inactive) | GI50 (DMS-114): > 92.7 µM (inactive) | GI50 (DMS-273): > 100 µM (inactive) | GI50 (EKVX): > 100 µM (inactive) | GI50 (HCC 2998): > 100 µM (inactive) | GI50 (HCT-116): > 100 µM (inactive) | GI50 (HCT-15): > 100 µM | GI50 (HL-60): > 100 µM (inactive) | GI50 (HOP-18): > 100 µM (inactive) | GI50 (HOP-62): > 100 µM (inactive) | GI50 (HOP-92): 22.8 µM (inactive) | GI50 (HT-29): > 100 µM (inactive) | GI50 (IGROV-1): > 100 µM (inactive) | GI50 (K562): > 100 µM (inactive) | GI50 (KM-20L2): > 100 µM (inactive) | GI50 (KM12): > 100 µM (inactive) | GI50 (LOX IMVI): > 100 µM (inactive) | GI50 (LXFL 529): > 100 µM (inactive) | GI50 (M14): > 100 µM (inactive) | GI50 (M19-MEL): > 100 µM (inactive) | GI50 (MOLT-4): > 59.6 µM (inactive) | GI50 (Malme-3M): > 100 µM (inactive) | GI50 (NCI-H23): > 100 µM (inactive) | GI50 (NCI-H460): > 100 µM (inactive) | GI50 (NCI-H522): > 84.7 µM (inactive) | GI50 (OVCAR-3): > 100 µM (inactive) | GI50 (OVCAR-4): > 100 µM (inactive) | GI50 (OVCAR-5): > 100 µM (inactive) | GI50 (OVCAR-8): > 100 µM (inactive) | GI50 (RPMI-8226): > 100 µM (inactive) | GI50 (RXF 393): > 100 µM (inactive) | GI50 (RXF 631): > 100 µM (inactive) | GI50 (SF-268): > 100 µM (inactive) | GI50 (SF-295): > 100 µM (inactive) | GI50 (SF-539): > 100 µM (inactive) | GI50 (SK-MEL-28): > 100 µM (inactive) | GI50 (SK-MEL-2): > 100 µM (inactive) | GI50 (SK-MEL-5): > 100 µM (inactive) | GI50 (SK-OV-3): > 100 µM (inactive) | GI50 (SN12C): > 100 µM (inactive) | GI50 (SNB-19): > 100 µM (inactive) | GI50 (SNB-75): > 100 µM (inactive) | GI50 (SNB-78): > 100 µM (inactive) | GI50 (SW-620): > 100 µM (inactive) | GI50 (TK-10): > 100 µM (inactive) | GI50 (U-251): > 100 µM (inactive) | GI50 (UACC-257): > 100 µM (inactive) | GI50 (UACC-62): > 100 µM (inactive) | GI50 (UO-31): > 100 µM (inactive) | GI50 (XF498): > 100 µM (inactive)

OCC1OC2c3ccccc3COC2C1OCc1ccccc1 (configuration not stated)
GI50 (786-0): > 100 µM (inactive) | GI50 (A549): > 100 µM (inactive) | GI50 (ACHN): > 100 µM (inactive) | GI50 (CAKI-1): 96.8 µM (inactive) | GI50 (COLO 205): > 100 µM (inactive) | GI50 (DLD-1): > 100 µM (inactive) | GI50 (DMS-114): 59.4 µM (inactive) | GI50 (EKVX): > 100 µM (inactive) | GI50 (HCC 2998): > 100 µM (inactive) | GI50 (HCT-116): > 100 µM (inactive) | GI50 (HCT-15): > 100 µM | GI50 (HOP-18): > 100 µM (inactive) | GI50 (HT-29): > 100 µM (inactive) | GI50 (IGROV-1): > 100 µM (inactive) | GI50 (K562): 96.4 µM (inactive) | GI50 (KM-20L2): > 100 µM (inactive) | GI50 (KM12): > 100 µM (inactive) | GI50 (LXFL 529): 87.7 µM (inactive) | GI50 (M14): > 100 µM (inactive) | GI50 (M19-MEL): > 100 µM (inactive) | GI50 (MOLT-4): > 100 µM (inactive) | GI50 (Malme-3M): > 100 µM (inactive) | GI50 (NCI-H226): > 100 µM (inactive) | GI50 (NCI-H23): 91.6 µM (inactive) | GI50 (NCI-H460): > 100 µM (inactive) | GI50 (NCI-H522): 70.1 µM (inactive) | GI50 (OVCAR-3): > 100 µM (inactive) | GI50 (OVCAR-4): > 100 µM (inactive) | GI50 (OVCAR-5): > 100 µM (inactive) | GI50 (OVCAR-8): > 100 µM (inactive) | GI50 (RPMI-8226): > 100 µM (inactive) | GI50 (RXF 393): > 100 µM (inactive) | GI50 (RXF 631): > 100 µM (inactive) | GI50 (SF-295): 88.9 µM (inactive) | GI50 (SK-MEL-28): > 100 µM (inactive) | GI50 (SK-MEL-2): > 100 µM (inactive) | GI50 (SK-MEL-5): 38.1 µM (inactive) | GI50 (SK-OV-3): > 100 µM (inactive) | GI50 (SN12C): > 100 µM (inactive) | GI50 (SNB-19): > 100 µM (inactive) | GI50 (SNB-75): > 100 µM (inactive) | GI50 (SNB-78): > 100 µM (inactive) | GI50 (SR): > 100 µM (inactive) | GI50 (SW-620): > 100 µM (inactive) | GI50 (TK-10): > 100 µM (inactive) | GI50 (U-251): > 100 µM (inactive) | GI50 (UACC-257): 37 µM (inactive) | GI50 (UACC-62): 69.5 µM (inactive) | GI50 (UO-31): > 100 µM (inactive) | GI50 (XF498): 49.2 µM (inactive)
